Drawing on the kinase profiling compilation of Christmann-Franck et al. (2016), this text covers residual activity for three compounds.

Chain of PRKG2 (human) (Q13237 whole entry, looked up): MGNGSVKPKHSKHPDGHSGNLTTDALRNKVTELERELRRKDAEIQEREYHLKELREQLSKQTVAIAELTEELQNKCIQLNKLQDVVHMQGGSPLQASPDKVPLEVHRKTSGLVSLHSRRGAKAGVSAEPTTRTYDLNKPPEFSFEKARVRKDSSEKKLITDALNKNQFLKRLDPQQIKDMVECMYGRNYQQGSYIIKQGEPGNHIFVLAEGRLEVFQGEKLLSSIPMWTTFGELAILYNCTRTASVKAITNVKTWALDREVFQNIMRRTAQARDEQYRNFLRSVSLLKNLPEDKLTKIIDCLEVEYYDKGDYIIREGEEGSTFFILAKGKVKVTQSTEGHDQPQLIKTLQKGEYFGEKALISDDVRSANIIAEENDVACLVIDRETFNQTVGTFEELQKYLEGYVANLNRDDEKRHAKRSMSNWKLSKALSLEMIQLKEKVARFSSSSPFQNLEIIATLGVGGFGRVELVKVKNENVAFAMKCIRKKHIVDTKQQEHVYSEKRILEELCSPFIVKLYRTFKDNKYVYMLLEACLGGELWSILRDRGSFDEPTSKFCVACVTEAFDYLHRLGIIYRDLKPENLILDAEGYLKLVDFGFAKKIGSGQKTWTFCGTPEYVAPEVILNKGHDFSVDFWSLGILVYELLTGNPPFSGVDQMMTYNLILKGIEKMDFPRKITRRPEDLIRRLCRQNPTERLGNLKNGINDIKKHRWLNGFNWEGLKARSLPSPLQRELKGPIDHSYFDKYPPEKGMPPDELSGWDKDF
Chain of CDK1 CCNA2 (human) (P06493 whole entry, looked up): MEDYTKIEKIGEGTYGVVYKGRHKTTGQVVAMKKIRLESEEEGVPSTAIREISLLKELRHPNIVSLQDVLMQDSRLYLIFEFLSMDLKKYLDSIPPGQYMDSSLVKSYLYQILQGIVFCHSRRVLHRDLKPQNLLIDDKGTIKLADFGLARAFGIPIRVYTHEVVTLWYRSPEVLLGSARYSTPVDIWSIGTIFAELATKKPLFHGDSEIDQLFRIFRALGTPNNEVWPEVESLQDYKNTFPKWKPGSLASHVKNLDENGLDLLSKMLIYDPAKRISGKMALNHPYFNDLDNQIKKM
Chain of CDK1 CCNA2 (human) (P20248 whole entry, looked up): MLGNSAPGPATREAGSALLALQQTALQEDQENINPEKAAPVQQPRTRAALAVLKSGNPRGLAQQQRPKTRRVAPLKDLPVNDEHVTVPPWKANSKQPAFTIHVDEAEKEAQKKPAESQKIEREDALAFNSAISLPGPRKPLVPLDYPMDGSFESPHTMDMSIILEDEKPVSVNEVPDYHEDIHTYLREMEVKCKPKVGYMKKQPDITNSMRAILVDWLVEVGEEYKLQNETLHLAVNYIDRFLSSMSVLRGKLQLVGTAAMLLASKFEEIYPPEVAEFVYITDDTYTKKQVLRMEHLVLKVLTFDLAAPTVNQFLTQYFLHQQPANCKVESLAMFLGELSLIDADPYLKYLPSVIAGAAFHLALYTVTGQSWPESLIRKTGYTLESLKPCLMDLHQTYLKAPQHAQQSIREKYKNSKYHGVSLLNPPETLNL
Chain of CAMKK1 (human) (Q8N5S9 whole entry, looked up): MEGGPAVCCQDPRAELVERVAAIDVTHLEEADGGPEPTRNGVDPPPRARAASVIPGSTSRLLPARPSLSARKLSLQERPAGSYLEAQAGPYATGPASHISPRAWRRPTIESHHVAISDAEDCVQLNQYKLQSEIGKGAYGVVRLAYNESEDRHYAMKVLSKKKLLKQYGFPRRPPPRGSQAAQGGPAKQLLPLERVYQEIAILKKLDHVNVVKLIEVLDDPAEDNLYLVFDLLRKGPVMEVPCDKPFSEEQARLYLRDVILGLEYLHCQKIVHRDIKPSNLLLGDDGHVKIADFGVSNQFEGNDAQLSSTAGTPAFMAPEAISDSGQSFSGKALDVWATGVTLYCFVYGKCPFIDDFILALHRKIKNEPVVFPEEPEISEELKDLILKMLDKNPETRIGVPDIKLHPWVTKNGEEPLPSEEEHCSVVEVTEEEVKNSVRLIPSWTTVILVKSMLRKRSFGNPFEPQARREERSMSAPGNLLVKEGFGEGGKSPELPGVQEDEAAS
Chain of CDK3 CCNE1 (human) (P24864 whole entry, looked up): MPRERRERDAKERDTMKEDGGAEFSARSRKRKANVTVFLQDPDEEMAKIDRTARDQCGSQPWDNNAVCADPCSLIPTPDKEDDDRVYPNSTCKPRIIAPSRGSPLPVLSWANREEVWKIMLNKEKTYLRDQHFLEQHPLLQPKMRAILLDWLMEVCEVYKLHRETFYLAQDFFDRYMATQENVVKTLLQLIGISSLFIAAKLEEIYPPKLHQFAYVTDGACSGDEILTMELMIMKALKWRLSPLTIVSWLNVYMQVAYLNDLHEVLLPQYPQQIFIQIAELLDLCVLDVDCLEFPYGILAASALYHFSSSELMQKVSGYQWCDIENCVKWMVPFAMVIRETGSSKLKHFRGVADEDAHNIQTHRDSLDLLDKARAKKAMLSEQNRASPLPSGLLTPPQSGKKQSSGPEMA
Chain of CDK3 CCNE1 (human) (Q00526 whole entry, looked up): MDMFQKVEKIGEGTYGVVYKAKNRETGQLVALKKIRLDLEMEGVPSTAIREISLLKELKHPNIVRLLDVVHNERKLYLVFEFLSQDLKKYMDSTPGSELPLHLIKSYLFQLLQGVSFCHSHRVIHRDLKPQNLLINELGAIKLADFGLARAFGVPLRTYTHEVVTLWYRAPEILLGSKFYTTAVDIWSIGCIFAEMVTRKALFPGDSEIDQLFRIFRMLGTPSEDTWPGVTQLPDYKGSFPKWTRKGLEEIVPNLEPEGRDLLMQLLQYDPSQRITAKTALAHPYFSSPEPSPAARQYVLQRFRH
Chain of CLK1 (human) (P49759 whole entry, looked up): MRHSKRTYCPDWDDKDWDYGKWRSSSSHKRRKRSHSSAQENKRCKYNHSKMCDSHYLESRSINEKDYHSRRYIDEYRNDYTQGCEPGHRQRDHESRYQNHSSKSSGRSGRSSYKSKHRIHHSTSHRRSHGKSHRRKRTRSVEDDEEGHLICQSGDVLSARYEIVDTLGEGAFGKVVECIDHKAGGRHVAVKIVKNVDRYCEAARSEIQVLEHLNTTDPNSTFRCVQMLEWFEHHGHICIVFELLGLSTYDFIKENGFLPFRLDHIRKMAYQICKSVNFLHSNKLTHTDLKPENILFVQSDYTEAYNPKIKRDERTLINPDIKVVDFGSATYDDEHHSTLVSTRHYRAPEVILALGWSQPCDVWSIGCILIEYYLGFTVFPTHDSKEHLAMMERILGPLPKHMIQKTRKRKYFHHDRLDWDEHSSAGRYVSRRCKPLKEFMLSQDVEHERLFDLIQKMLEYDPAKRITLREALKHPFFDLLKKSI

The target in the first assay is PIM2 (human) (UniProt Q9P1W9). In words: radiometric filter-binding kinase assay, Kinase HotSpot. The note with it: compound 0.5 µM; ATP 10 µM.
The residual activity is the signal under treatment as a percentage of the control signal. With `CC(=O)O/N=C1\C(=C2\C(=O)Nc3cc(Br)ccc32)Nc2ccccc21`, the residual activity turned out to be 93.2%.
Still for that read-out and setting: the value for `O=C(O)/C=C/c1cc(Br)c(Br)c(Br)c1Br` was 52.8%.

A further assay concerns the target ALK (human) (UniProt Q9UM73). The assay is described as above. The following applies: compound 0.5 µM; ATP 10 µM.
Regarding `CCN(CC)CCCCN1c2ccccc2Oc2ccc(Cl)cc21`, the residual activity is 106%.
Same read-out and setting: the figure for `CC(=O)O/N=C1\C(=C2\C(=O)Nc3cc(Br)ccc32)Nc2ccccc21` is 86.7%.
Regarding `O=C(O)/C=C/c1cc(Br)c(Br)c(Br)c1Br`, the residual activity is 98.6%.

The next assay deals with SGK2 (human) (UniProt Q9HBY8). The assay is described as above. The following applies: compound 0.5 µM; ATP 10 µM.
Chain of SGK2 (human) (Q9HBY8 whole entry, looked up): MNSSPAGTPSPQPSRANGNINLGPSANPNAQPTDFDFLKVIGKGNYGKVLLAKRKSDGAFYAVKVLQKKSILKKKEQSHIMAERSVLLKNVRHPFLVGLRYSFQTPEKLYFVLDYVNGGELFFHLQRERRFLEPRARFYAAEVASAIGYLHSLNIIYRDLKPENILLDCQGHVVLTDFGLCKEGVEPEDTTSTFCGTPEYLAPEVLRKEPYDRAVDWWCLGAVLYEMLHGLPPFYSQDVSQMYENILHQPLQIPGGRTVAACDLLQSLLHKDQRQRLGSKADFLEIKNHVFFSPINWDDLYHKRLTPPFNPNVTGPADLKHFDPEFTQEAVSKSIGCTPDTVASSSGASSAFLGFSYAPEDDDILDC
With `CCN(CC)CCCCN1c2ccccc2Oc2ccc(Cl)cc21`, the residual activity was determined as 105%.
`CC(=O)O/N=C1\C(=C2\C(=O)Nc3cc(Br)ccc32)Nc2ccccc21`: the residual activity came out at 92.8%.
Regarding `O=C(O)/C=C/c1cc(Br)c(Br)c(Br)c1Br`, the residual activity is 59.7%.

The next assay addresses PRKG2 (human) (UniProt Q13237). The assay is described as above. The note with it: compound 0.5 µM; ATP 10 µM.
For the compound `CCN(CC)CCCCN1c2ccccc2Oc2ccc(Cl)cc21`, the residual activity was found to be 94.4%.
With `CC(=O)O/N=C1\C(=C2\C(=O)Nc3cc(Br)ccc32)Nc2ccccc21`, the residual activity worked out at 91.4%.
`O=C(O)/C=C/c1cc(Br)c(Br)c(Br)c1Br`: the residual activity stood at 80.3%.

The target in another assay is MKNK2 (human) (UniProt Q9HBH9). The assay is described as above. The note with it: compound 0.5 µM; ATP 10 µM.
With `CCN(CC)CCCCN1c2ccccc2Oc2ccc(Cl)cc21`, the residual activity came out at 111%.
Same read-out and setting: the value for `CC(=O)O/N=C1\C(=C2\C(=O)Nc3cc(Br)ccc32)Nc2ccccc21` was 66.9%; that for `O=C(O)/C=C/c1cc(Br)c(Br)c(Br)c1Br` was 53.8%.

The next assay concerns the target CDK3 CCNE1 (human) (UniProt Q00526+P24864). The assay is described as above. The note with it: compound 0.5 µM; ATP 10 µM.
Regarding `CCN(CC)CCCCN1c2ccccc2Oc2ccc(Cl)cc21`, the residual activity is 90.3%.
In the case of `CC(=O)O/N=C1\C(=C2\C(=O)Nc3cc(Br)ccc32)Nc2ccccc21`, the residual activity was found to be 36.3%.
`O=C(O)/C=C/c1cc(Br)c(Br)c(Br)c1Br`: the residual activity came out at 98.3%.

The target in another assay is TSSK1B (human) (UniProt Q9BXA7). Described as above. The following applies: compound 0.5 µM; ATP 10 µM.
Chain of TSSK1B (human) (Q9BXA7 whole entry, looked up): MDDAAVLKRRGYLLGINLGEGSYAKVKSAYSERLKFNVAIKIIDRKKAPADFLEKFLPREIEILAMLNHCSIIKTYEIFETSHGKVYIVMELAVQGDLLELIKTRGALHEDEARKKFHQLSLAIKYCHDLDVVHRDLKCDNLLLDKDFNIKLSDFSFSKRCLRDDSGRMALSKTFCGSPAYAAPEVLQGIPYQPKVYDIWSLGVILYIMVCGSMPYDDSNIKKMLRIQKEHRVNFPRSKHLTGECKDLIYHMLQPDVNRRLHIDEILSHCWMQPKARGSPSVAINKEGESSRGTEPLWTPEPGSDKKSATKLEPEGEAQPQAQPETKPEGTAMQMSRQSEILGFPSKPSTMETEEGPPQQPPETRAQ
Turning to `CCN(CC)CCCCN1c2ccccc2Oc2ccc(Cl)cc21`, the residual activity was determined as 96.7%.
In the case of `CC(=O)O/N=C1\C(=C2\C(=O)Nc3cc(Br)ccc32)Nc2ccccc21`, the residual activity came to 92.4%.
On the same count and under the same terms, the figure for `O=C(O)/C=C/c1cc(Br)c(Br)c(Br)c1Br` is 79.2%.

The next assay has as its target CAMKK1 (human) (UniProt Q8N5S9). Described as above. The following applies: compound 0.5 µM; ATP 10 µM.
With `CCN(CC)CCCCN1c2ccccc2Oc2ccc(Cl)cc21`, the residual activity came out at 116%.
As for `CC(=O)O/N=C1\C(=C2\C(=O)Nc3cc(Br)ccc32)Nc2ccccc21`, the residual activity is 72.7%.
Same read-out and setting: the value for `O=C(O)/C=C/c1cc(Br)c(Br)c(Br)c1Br` was 105%.

In another assay the target is AKT1 (human) (UniProt P31749). Described as above. The following applies: compound 0.5 µM; ATP 10 µM.
Consider `CCN(CC)CCCCN1c2ccccc2Oc2ccc(Cl)cc21`, for which the residual activity is 112%.
The same measure, in the same setting: the figure for `CC(=O)O/N=C1\C(=C2\C(=O)Nc3cc(Br)ccc32)Nc2ccccc21` is 99.6%; for `O=C(O)/C=C/c1cc(Br)c(Br)c(Br)c1Br` it is 97.4%.

Another assay concerns the target SRC (human) (UniProt P12931). The description is as above. The following applies: compound 0.5 µM; ATP 10 µM.
As to `CCN(CC)CCCCN1c2ccccc2Oc2ccc(Cl)cc21`, the residual activity was 106%.
Same read-out and setting: the figure for `CC(=O)O/N=C1\C(=C2\C(=O)Nc3cc(Br)ccc32)Nc2ccccc21` is 26.2%.
In the case of `O=C(O)/C=C/c1cc(Br)c(Br)c(Br)c1Br`, the residual activity was 88.8%.

The next assay deals with MAPK1 (human) (UniProt P28482). Described as above. The following applies: compound 0.5 µM; ATP 10 µM.
With `CCN(CC)CCCCN1c2ccccc2Oc2ccc(Cl)cc21`, the residual activity amounted to 84.7%.
With `CC(=O)O/N=C1\C(=C2\C(=O)Nc3cc(Br)ccc32)Nc2ccccc21`, the residual activity stood at 87.9%.
For `O=C(O)/C=C/c1cc(Br)c(Br)c(Br)c1Br`, the residual activity turned out to be 98.5%.

The next assay concerns the target DYRK1B (human) (UniProt Q9Y463). The description is as above. The note with it: compound 0.5 µM; ATP 10 µM.
Consider `CCN(CC)CCCCN1c2ccccc2Oc2ccc(Cl)cc21`, for which the residual activity turned out to be 101%.
With `CC(=O)O/N=C1\C(=C2\C(=O)Nc3cc(Br)ccc32)Nc2ccccc21`, the residual activity was 96%.
As to `O=C(O)/C=C/c1cc(Br)c(Br)c(Br)c1Br`, the residual activity came to 79.1%.

The target in another assay is RPS6KA5 KD2 (human) (UniProt O75582). Described as above. The following applies: compound 0.5 µM; ATP 10 µM.
In the case of `CCN(CC)CCCCN1c2ccccc2Oc2ccc(Cl)cc21`, the residual activity worked out at 107%.
In the case of `CC(=O)O/N=C1\C(=C2\C(=O)Nc3cc(Br)ccc32)Nc2ccccc21`, the residual activity is 83.9%.
As for `O=C(O)/C=C/c1cc(Br)c(Br)c(Br)c1Br`, the residual activity is 88.3%.

The next assay deals with RAF1 (human) (UniProt P04049). Described as above. The following applies: compound 0.5 µM; ATP 10 µM.
For the compound `CCN(CC)CCCCN1c2ccccc2Oc2ccc(Cl)cc21`, the residual activity is 105%.
As to `CC(=O)O/N=C1\C(=C2\C(=O)Nc3cc(Br)ccc32)Nc2ccccc21`, the residual activity stood at 100%.
On the same count and under the same terms, the figure for `O=C(O)/C=C/c1cc(Br)c(Br)c(Br)c1Br` is 91.3%.

The next assay deals with PRKCD (human) (UniProt Q05655). The assay is described as above. The following applies: compound 0.5 µM; ATP 10 µM.
Chain of PRKCD (human) (Q05655 whole entry, looked up): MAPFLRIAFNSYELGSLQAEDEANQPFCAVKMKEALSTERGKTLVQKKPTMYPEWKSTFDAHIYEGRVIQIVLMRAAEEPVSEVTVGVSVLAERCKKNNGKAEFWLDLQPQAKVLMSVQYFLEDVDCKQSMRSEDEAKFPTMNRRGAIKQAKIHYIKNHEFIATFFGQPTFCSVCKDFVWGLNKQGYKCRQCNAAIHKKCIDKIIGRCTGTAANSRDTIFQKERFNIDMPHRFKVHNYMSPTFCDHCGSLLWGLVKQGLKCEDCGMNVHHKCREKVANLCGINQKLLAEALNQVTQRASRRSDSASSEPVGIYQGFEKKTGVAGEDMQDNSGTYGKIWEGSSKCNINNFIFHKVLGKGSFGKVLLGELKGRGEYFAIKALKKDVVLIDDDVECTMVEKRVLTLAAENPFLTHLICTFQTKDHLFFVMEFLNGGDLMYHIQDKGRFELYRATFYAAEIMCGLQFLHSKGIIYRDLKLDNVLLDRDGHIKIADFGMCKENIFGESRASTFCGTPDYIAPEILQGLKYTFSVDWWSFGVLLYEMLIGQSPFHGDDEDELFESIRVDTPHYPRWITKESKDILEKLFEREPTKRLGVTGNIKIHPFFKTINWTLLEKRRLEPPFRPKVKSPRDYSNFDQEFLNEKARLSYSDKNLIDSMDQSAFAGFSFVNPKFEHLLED
For the compound `CCN(CC)CCCCN1c2ccccc2Oc2ccc(Cl)cc21`, the residual activity worked out at 95.4%.
The same measure, in the same setting: the value for `CC(=O)O/N=C1\C(=C2\C(=O)Nc3cc(Br)ccc32)Nc2ccccc21` was 97%.
The same measure, in the same setting: the value for `O=C(O)/C=C/c1cc(Br)c(Br)c(Br)c1Br` was 93.9%.

The target of another assay is MAP3K5 (human) (UniProt Q99683). The assay is described as above. The note with it: compound 0.5 µM; ATP 10 µM.
As to `CCN(CC)CCCCN1c2ccccc2Oc2ccc(Cl)cc21`, the residual activity came to 106%.
Still for that read-out and setting: the value for `CC(=O)O/N=C1\C(=C2\C(=O)Nc3cc(Br)ccc32)Nc2ccccc21` was 95.8%.
Regarding `O=C(O)/C=C/c1cc(Br)c(Br)c(Br)c1Br`, the residual activity amounted to 94%.

Another assay has as its target CLK1 (human) (UniProt P49759). The assay is described as above. The note with it: compound 0.5 µM; ATP 10 µM.
Turning to `CCN(CC)CCCCN1c2ccccc2Oc2ccc(Cl)cc21`, the residual activity came to 110%.
The same measure, in the same setting: the figure for `CC(=O)O/N=C1\C(=C2\C(=O)Nc3cc(Br)ccc32)Nc2ccccc21` is 83.3%; for `O=C(O)/C=C/c1cc(Br)c(Br)c(Br)c1Br` it is 98.5%.

Another assay concerns the target STK33 (human) (UniProt Q9BYT3). The assay is described as above. The note with it: compound 0.5 µM; ATP 10 µM.
For `CCN(CC)CCCCN1c2ccccc2Oc2ccc(Cl)cc21`, the residual activity came to 89.9%.
For `CC(=O)O/N=C1\C(=C2\C(=O)Nc3cc(Br)ccc32)Nc2ccccc21`, the residual activity is 70.3%.
The same measure, in the same setting: the value for `O=C(O)/C=C/c1cc(Br)c(Br)c(Br)c1Br` was 67.9%.

The next assay addresses CDK1 CCNA2 (human) (UniProt P06493+P20248). The assay is described as above. The note with it: compound 0.5 µM; ATP 10 µM.
Regarding `CCN(CC)CCCCN1c2ccccc2Oc2ccc(Cl)cc21`, the residual activity was 99.3%.
Regarding `CC(=O)O/N=C1\C(=C2\C(=O)Nc3cc(Br)ccc32)Nc2ccccc21`, the residual activity was found to be 77.5%.
For `O=C(O)/C=C/c1cc(Br)c(Br)c(Br)c1Br`, the residual activity came out at 88.6%.

For a further assay, the target named is TYK2 JH1 catalytic (human) (UniProt P29597). The assay is described as above. The following applies: compound 0.5 µM; ATP 10 µM.
For `CCN(CC)CCCCN1c2ccccc2Oc2ccc(Cl)cc21`, the residual activity turned out to be 96.7%.
Still for that read-out and setting: the value for `CC(=O)O/N=C1\C(=C2\C(=O)Nc3cc(Br)ccc32)Nc2ccccc21` was 81.6%; that for `O=C(O)/C=C/c1cc(Br)c(Br)c(Br)c1Br` was 110%.

For another assay, the target named is MAPK12 (human) (UniProt P53778). Described as above. The note with it: compound 0.5 µM; ATP 10 µM.
Chain of MAPK12 (human) (P53778 whole entry, looked up): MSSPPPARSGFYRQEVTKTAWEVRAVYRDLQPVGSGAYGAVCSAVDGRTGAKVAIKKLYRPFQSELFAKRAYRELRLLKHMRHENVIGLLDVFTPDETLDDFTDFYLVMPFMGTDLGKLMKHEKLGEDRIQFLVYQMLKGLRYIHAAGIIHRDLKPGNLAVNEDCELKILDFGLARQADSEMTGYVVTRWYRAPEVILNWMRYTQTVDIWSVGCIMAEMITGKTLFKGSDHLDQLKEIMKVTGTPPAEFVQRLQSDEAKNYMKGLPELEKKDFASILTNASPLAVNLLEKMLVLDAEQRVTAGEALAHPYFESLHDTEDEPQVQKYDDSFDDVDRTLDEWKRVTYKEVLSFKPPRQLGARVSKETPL
Regarding `CCN(CC)CCCCN1c2ccccc2Oc2ccc(Cl)cc21`, the residual activity worked out at 97.4%.
Same read-out and setting: the figure for `CC(=O)O/N=C1\C(=C2\C(=O)Nc3cc(Br)ccc32)Nc2ccccc21` is 85.2%; for `O=C(O)/C=C/c1cc(Br)c(Br)c(Br)c1Br` it is 103%.
